Test results: patent US9913792B2, “Methods of regulating skin health and appearance with a combination of flavonoid and vitamin B3” (The Procter & Gamble Company, priority 2014, dated 2018)
“And” between values parts separate entries of the source, which are not always exact repeats. Equal entries are not always repeated.

What was measured:
Human dermal fibroblasts = test: Extracellular acidification rate (ECAR) of fibroblasts after hydrogen peroxide challenge; assay type: cell-based
Description: The effect of a combination of a flavonoid compound, a vitamin B3 compound, and a hydrolyzed silk protein on cellular energy production was assessed by measuring the extracellular acidification rate (“ECAR”) of fibroblasts after exposure to hydrogen peroxide challenge (FIG. 2). ECAR provides an indirect measure of glycolysis. Treatment with hydrogen peroxide replicates stress induced by UV radiation or chemical pollution and decreases the ECAR. An XF Extracellular Flux Analyzer (Seahorse Bioscience, North Billerica, Mass.) was used to detect extracellular acidification rate. Human dermal fibroblasts were plated at 1×10^5 cells per well in a 96-well plate 24 hours prior to testing. The plate was loaded into the analyzer and equilibrated according to the manufacturer's instructions. Hydrogen peroxide, quercetin (Tocris Bioscience), GSS (BioSpectrum) and niacinamide were loaded into an automated injection port of the XF cartridge plate. The analyzer was programmed to sequentially run a two-minute mix cycle and a four-minute measurement cycle continuously for at least 108 minutes. Data points were collected and recorded by the analyzer. The analyzer was allowed to complete three cycles to establish a baseline value for glycolysis prior to being exposed to the peroxide solution. […]
[…] The ECAR was calculated as a percent of pre-treatment baseline. […]

human keratinocytes = test: Intracellular ATP levels in keratinocytes stressed with H2O2 (ATP Glo luminescence); assay type: cell-based; conditions: for ATP: luminescent counts; for % Control: ATP
Description: The effects of a flavonoid compound, a vitamin B3 compound, a hydrolyzed silk protein and a combination thereof, on intracellular ATP levels were assessed. Keratinocytes were cultured in T150 flasks in EpiLife® medium (MEPICFPRF500, Life Technologies, Grand Island, N.Y.) supplemented with human keratinocyte growth supplement (S-001-5, Life Technologies) and 1% penicillin/streptomycin (15140-122, Life Technologies). When the keratinocytes reached about 70% confluency, they were plated on 96-well plates at a density of 20,000 cells/well. The plates were incubated for 24 hours before the experimental stressor (H2O2) and treatment (niacinamide and/or GSS, Crosilk™ 1000, Crosilk™ Liquid, or HerbEx Silk Peptides) were applied.
The 96-well plate was divided into groups of wells in which (1) no stressor or treatment was applied, (2) stressor was applied but no treatment, and (3) stressor and treatment were applied. For the no stressor or treatment group, the culture medium was simply refreshed. In combination experiments, stressor and two treatments were applied. […] The plates were returned to the CO2 incubator for 90 minutes before ATP was measured.
ATP was measured by removing the media from all treatment groups and controls and replacing the media with ATP Glo® reagent (Promega, Madison, Wis.) per the manufacturer's instructions. After 10 minutes of exposure at room temperature, the luminescence was measured using an EnVision® plate reader (Perkin Elmer, Waltham, Mass.). The luminescent counts that were the output from the measurement were directly proportional to the ATP levels in the cells.
Replicates of each treatment group were averaged together and standard p-value calculations were used (2-sided, equal variance) to calculate significance. In cases where two treatments appeared to synergistically enhance ATP levels, the observed results were compared to the sum of the individual treatment groups to determine significance. The ATP levels measured following treatment are provided below.

[1] = 250 uM Niacinamide + 880 uM H202

Structure (SMILES) | rate of glycolysis (ECAR) in stressed cells (Human dermal fibroblasts; 1.5 mM hydrogen peroxide, 15 uM quercetin, 90 minutes following treatment (FIG. 1)) | ATP (human keratinocytes; [1]) | ATP (human keratinocytes; 0.05% Niacinamide + 800 uM H202, 90 minutes) | % Control (human keratinocytes; [1]) [%] | % Control (human keratinocytes; 0.05% Niacinamide + 800 uM H202) [%] | ECAR as percent of pre-treatment baseline (Human dermal fibroblasts; 1.75 mM hydrogen peroxide, 3% niacinamide alone)
O=c1c(O)c(-c2ccc(O)c(O)c2)oc2cc(O)cc(O)c12 [Quercetin, 2-(3,4-dihydroxyphenyl)-3,5,7-trihydroxy-4H-chromen-4-one] | significantly increase the rate of glycolysis | – | – | – | – | –
NC(=O)c1cccnc1 [Niacinamide, niacinamide] | – | 85645 and 75045 and 80345 | 185268 | 29.5 | 43.3 | provided a protective effect and increased the ECAR
